# Reference: paper PMC10609219 (Molecules, 2023)
# Biological target: T1, DPP-4 (Homo sapiens, UniProt P27487)
# T1 construct: gene DPP4
# Assay: fluorogenic enzyme inhibition assay (Cayman DPP-4 inhibitor screening kit)
# Format: biochemical
# T1 sequence (P27487 39-766): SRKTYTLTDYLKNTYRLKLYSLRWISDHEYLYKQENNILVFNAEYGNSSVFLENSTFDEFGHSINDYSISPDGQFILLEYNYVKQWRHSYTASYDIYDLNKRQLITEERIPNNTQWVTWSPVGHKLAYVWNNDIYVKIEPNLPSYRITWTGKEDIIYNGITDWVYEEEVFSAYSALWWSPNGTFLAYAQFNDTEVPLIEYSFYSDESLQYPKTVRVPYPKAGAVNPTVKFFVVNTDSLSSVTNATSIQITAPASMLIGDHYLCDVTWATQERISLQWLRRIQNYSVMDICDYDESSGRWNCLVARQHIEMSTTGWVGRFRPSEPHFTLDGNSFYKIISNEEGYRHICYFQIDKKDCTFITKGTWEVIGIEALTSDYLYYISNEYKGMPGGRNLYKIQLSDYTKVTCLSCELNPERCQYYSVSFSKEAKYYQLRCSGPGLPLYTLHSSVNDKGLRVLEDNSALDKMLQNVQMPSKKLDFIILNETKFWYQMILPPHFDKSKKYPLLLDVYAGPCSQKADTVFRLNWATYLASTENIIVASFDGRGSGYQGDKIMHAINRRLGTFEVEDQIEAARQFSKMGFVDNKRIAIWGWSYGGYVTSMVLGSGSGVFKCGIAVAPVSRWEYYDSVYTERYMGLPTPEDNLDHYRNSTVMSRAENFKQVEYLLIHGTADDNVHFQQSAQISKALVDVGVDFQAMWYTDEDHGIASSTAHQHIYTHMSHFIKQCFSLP
smiles,measurement,value
"O=C(O)/C=C/c1ccc(O)c(O)c1 [caffeic acid, (E)-3-(3,4-dihydroxyphenyl)prop-2-enoic acid]",IC50,158 ± 11.3 µM
